Holding throughout (assay): NCI-60 cell line screen, 48 h
Assay [1] concerns LOX IMVI melanoma.
Assay [2] relates to NCI-H226 lung.
Assay [3] concerns HCT-116 colon.
Assay [4] deals with EKVX NSCLC.
For assay [5], the system named is SNB-75 CNS.
For assay [6], the system named is TK-10 renal.
For assay [7], the system named is OVCAR-8 ovarian.
Assay [8] has as its system OVCAR-5 ovarian.
The test system of assay [9] is SNB-78 CNS.
The test system of assay [10] is M19-MEL melanoma.

This passage reports GI50 and TGI results from PubChem BioAssay (NCI).

SMILES strings stand for the structures. Where “and” joins values, the source holds several entries; their conditions need not be identical. Equal entries are not always repeated.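 Protocol summary: plate cells (96-well), add compound at 5 concentrations, incubate 48 h, interpolate endpoints linearly. At the GI50, growth is halved. TGI marks complete inhibition of growth.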

For `N#CC(I)CS(=O)(=O)c1ccccc1` (stereo not given), the GI50 in assay [1] was 14.8 µM; in assay [2] it was 17.9 µM; in assay [3], 1.66 µM; in [4] it was 19.4 µM; in [5], 15.6 µM; in assay [6], 1.75 µM. Besides, the GI50 is 17.4 µM in [7] and 18.9 µM in assay [8]. Also, the TGI in assay [1] turned out to be 28.3 µM; in assay [2] it was 37.8 µM; in [3], 3.11 µM; in assay [4], 44.2 µM; in assay [5], 36 µM; in [6] it was 3.3 µM. Further, the TGI in assay [7] was determined as 32.2 µM; in assay [8], 33.6 µM.

In the case of `Cc1ccc2c(c1)c1ccc3c(c1n2C)C(=O)C=CC3=O`, the TGI in [1] is > 10 µM; in assay [2], > 10 µM; in assay [3] it was 2.92 µM; in [4] it was > 7.07 µM; in assay [5], > 10 µM; in [6] it was 3.76 µM. Besides, the TGI in [7] is 6.01 µM; in [8], > 10 µM.

On to `O=[N+]([O-])c1cccnc1N=Nc1c(O)[nH]c2ccccc12`, for which the TGI in assay [1] was 25.7 µM; in assay [2] it was > 100 µM; in [3], 40 µM; in assay [4], 66 µM; in assay [5], 44.3 µM; in assay [6], 40.8 µM. In addition, the figures for the TGI in [7] and in [8] were > 100 µM and 49.2 µM, respectively.

For the molecule `O=C1C=C(Nc2ccc(Cl)cc2C(=O)c2ccccc2)c2ccccc2C1=O`, the TGI in assay [1], in assay [2], in [3], in assay [4], in [5] and in assay [6] was > 100 µM in each case. The TGI in [7], in assay [9] and in [8] was > 100 µM throughout.

Take `O=C(Nc1nc(-c2c[nH]c3ccccc23)cs1)c1n[nH]c(=O)c2ccccc12`: the GI50 in assay [1] is 0.644 µM; in [2], 12.3 µM; in assay [3], 0.368 µM; in assay [4], 51.3 µM; in [5], 16.2 µM; in assay [6], 14.4 µM. The GI50 in [7] is 2.26 µM; in [8], 73 µM. Besides, the TGI was 17.9 µM in [1]; 89.8 µM in [2]; > 44.5 µM in [3]; > 100 µM in [4]; > 67.8 µM in [5]; > 100 µM in assay [6]. The TGI was > 67.6 µM in [7] and > 100 µM in [8].

In the case of `CCn1cc(-c2ccnc3[nH]c(-c4cccc(CN(C)C)c4)cc23)c(-c2ccc(NC(=O)N(C)C)cc2)n1`, the GI50 in assay [1] is 0.297 µM and 0.239 µM; in [2] it was 0.25 µM and 0.451 µM; in assay [3] it was 0.322 µM and 0.455 µM; in [4], 3.87 µM; in [5], 0.217 µM and 0.461 µM; in assay [6], 6.77 µM and 1.67 µM. Also, the GI50 was 3.33 µM and 3.61 µM in assay [7]; 1.56 µM and 4.74 µM in assay [8]. Moreover, the TGI in assay [1] is 1.88 µM and 5.2 µM; in [2], 16.2 µM and > 10 µM; in assay [3], 17.7 µM and > 10 µM; in assay [4], > 10 µM; in [5], 2.38 µM and 3.42 µM; in assay [6] it was 26 µM and > 10 µM. The TGI in assay [7] was 23 µM and > 10 µM; in [8], 14.6 µM and > 10 µM.

With `COc1cc2c3c(n(C)c(=O)c2cc1OC)-c1cc2c(cc1C3=O)OCO2`, the TGI in assay [1] is > 73 µM; in assay [2], > 100 µM; in [3] it was > 100 µM; in [4], > 100 µM; in assay [5], 22.6 µM; in assay [6] it was > 100 µM. Besides, the TGI in assay [7] and in [8] was > 100 µM each time.

On to `O=C(CNc1ccc(Cl)cc1Cl)Nn1c(-c2ccccc2)nc2ccccc2c1=O`, for which the TGI in assay [1] stood at 24.1 µM; in [2], 58.3 µM; in assay [3], 31.3 µM; in assay [4] it was 35.5 µM; in assay [5], 30.5 µM; in [6], 36.1 µM. Also, the TGI is > 100 µM in assay [7] and 37.5 µM in [8].

As to `Nc1c(S(=O)(=O)c2ccc(Cl)cc2)c2nc3ccccc3nc2n2ccnc12`, the TGI in assay [2] is 84.1 µM; in assay [3], > 100 µM; in assay [4], > 100 µM; in assay [5], 93.2 µM; in assay [6] it was 78.2 µM; in assay [7] it was > 100 µM. For the same molecule, the TGI in assay [10], in [9] and in [8] was > 100 µM in each case.

`COC(=O)C1=CN(CC2=CC(=O)C(C)=CC2=O)C=C(C(=O)OC)C1c1ccccc1OC`: the GI50 in assay [1] is 21.4 µM; in assay [2] it was 16.4 µM; in assay [3], 22.8 µM; in assay [4], 28.8 µM; in assay [5] it was > 100 µM; in [6] it was 16.7 µM. The GI50 in assay [7] is 17.6 µM; in [8] it was 19.7 µM. In addition, the TGI in assay [1] was 42.9 µM; in [2], 41.5 µM; in assay [3] it was 66 µM; in assay [4] it was > 100 µM; in assay [5] it was > 100 µM; in assay [6], 35.4 µM. In addition, the TGI in assay [7] stood at 38.9 µM; in [8], 34.9 µM.

On to `C=C(C)C(C1C=C(CCC(C=O)=C(C)C)C(=O)O1)C1(OC)C=C(C)C(=O)O1` (stereo not given), for which the GI50 is 39.6 µM in assay [1]; > 100 µM in [2]; 49.5 µM in assay [3]; > 100 µM in assay [4]; > 100 µM in assay [5]; > 100 µM in assay [6]. The GI50 in [7] and in assay [8] was > 100 µM each time. The TGI in assay [1], in [2], in assay [3], in assay [4], in assay [5] and in assay [6] was > 100 µM in each case. The TGI in assay [7] and in [8] was > 100 µM in each case.
